From patent US8017584B2, “GD3-mimetic peptides” (Otsuka Pharmaceutical Co., Ltd., priority 2000, dated 2011)
Values joined by “and” are separate entries in the source; they are usually repeats but may differ in a detail not shown here. Equal values may be shown once.

Legend:
Anti-GD2 antibody = assay: ELISA of immobilized MAP-form peptides with control anti-GD2 antibody; assay type: binding; conditions: MAP form 100 ng/well
Procedure: A 0.1M NaHCO3 solution containing a GD3-mimetic peptide of the invention in the above MAP form (100 ng/100 μL) was added to the wells of a 96-well micro-titer plate, for immobilization at room temperature for one hour. Subsequently, in a manner similar to the ELISA method employed in Example 2, binding affinity of the GD3-mimetic peptide to GD3 antibody 4F6 was investigated.
Anti-GD2 antibody and anti-OAcGD3 antibody (Cerato, E., et al., Hybridoma, 16(4), 307-316 (1997)) were used as controls (these antibodies were kindly provided by from Dr. Portoukalian).

[1] = system: T-cell-rich lymphocytes / IL-2-dependent CTLL2 cells; assay: Cell response test: IL-2 activity (3H thymidine up-take of CTLL2 cells) in supernatant of spleen cells of mice immunized with R4 peptide (R4-KLH); assay type: cell-based, mouse; conditions: for 3H Thymidine up-take into CTLL2 cells, mean ± SE (4 wells): mice immunized with R4 peptide
[2] = Titer against GD3 (ELISA) of antiserum from mice immunized with MAP peptides (Example 4); assay type: in vivo, mice (C57BL/6); conditions: for reactivity of antiserum with GD3 (ELISA absorbance): individual mice
Procedure: Four species of GD3-mimetic peptide (MAP) obtained in Example 3 (2) was dissolved in PBS so as to attain a concentration of 200 μg/mL. The solution was added to Freund's complete (or incomplete) adjuvant (1:1, by volume), to thereby prepare an emulsion.
Eight mice (C57BL/6) were immunized by subcutaneous administration of the above emulsion (0.2 mL/mouse, in one administration, […]). Administration was performed every two weeks (for the second and subsequent administrations, Freund's incomplete adjuvant was used). After one week following respective administrations, blood was collected from the tail of each mouse, to thereby yield antiserum.
The antiserum obtained directly after the first administration will be referred to “1-st,” that obtained after the second administration will be referred to “2-nd,” and that obtained after the third administration will be referred to “3-rd.”
The titer, against GD3, of each of the antiserum samples (3×8 mice=24 samples) obtained in the (1) above was measured through ELISA as described below.
The thus-obtained purified GD3 was dissolved in methanol, whereby a GD3 solution having a concentration of 10 μg/mL was prepared. The GD3 solution was added to the wells of a 96-well micro-titer plate in amounts of 10 μL per well (which corresponds to 100 ng GD3 per well), and methanol was evaporated. Subsequently, a blocking solution (TBS supplemented with 1% BSA) was added to the wells in amounts of 50 μL per well, for blocking at 37° C. for 4 hours.
The supernatant was discarded. Each of the antiserum samples obtained in (1) above was diluted 100-fold, 400-fold, or 1,600 fold with the above-mentioned blocking solution. The diluted antiserum (50 μL) was added to each well for reaction at 4° C. overnight. The well was washed six times with TBS, and thereafter, HRP-labeled […] diluted 5,000-fold with the blocking solution was added (50 μL per well) for reaction for 2 hours at room temperature. The well was washed four times with TBS, and thereafter, enzymatic activity (peroxidase) of the well was detected with TMB solution (50 μL). The reaction was stopped with 1N HCl (50 μL), and the value corresponding to “420 nm-620 nm” was calculated.
A control sample was prepared as follows. […] The synthesized peptide was administered to a mouse for immunization, and the obtained antiserum served as a control sample. The titer of the control sample was obtained in a manner similar to that described above. (However, the number of provided mice was five, and only a 100-fold diluted solution was used.) This control peptide sample was also used in the form of MAP as described above.

[3] = system: T-cell-rich lymphocytes / IL-2-dependent CTLL2 cells; assay: Cell response test: IL-2 activity (3H thymidine up-take of CTLL2 cells) in supernatant of spleen cells of mice immunized with GD3; assay type: cell-based, mouse; conditions: for 3H Thymidine up-take into CTLL2 cells, mean ± SE (4 wells): mice immunized with GD3
[4] = stimulant 1 μg/ml, supernatant dilution 1/20
[5] = stimulant 1 μg/ml, supernatant dilution 1/50
[6] = stimulant 1 μg/ml, supernatant dilution ½
[7] = stimulant 1 μg/ml, supernatant dilution ⅕
[8] = stimulant 2 μg/ml, supernatant dilution 1/20
[9] = stimulant 2 μg/ml, supernatant dilution 1/50
[10] = stimulant 2 μg/ml, supernatant dilution ½
[11] = stimulant 2 μg/ml, supernatant dilution ⅕
[12] = stimulant 5 μg/ml, supernatant dilution 1/20
[13] = stimulant 5 μg/ml, supernatant dilution 1/50
[14] = stimulant 5 μg/ml, supernatant dilution ½
[15] = stimulant 5 μg/ml, supernatant dilution ⅕
[16] = antiserum 1st (after first administration), dilution factor 1/100, MAP 5 μg/mouse s.c.
[17] = antiserum 1st, dilution factor 1/400
[18] = antiserum 1st, dilution factor 1/1600
[19] = antiserum 2nd (after second administration), dilution factor 1/100
[20] = antiserum 2nd, dilution factor 1/400
[21] = antiserum 2nd, dilution factor 1/1600
[22] = antiserum 3rd (after third administration), dilution factor 1/100
[23] = antiserum 3rd, dilution factor 1/400
[24] = antiserum 3rd, dilution factor 1/1600

Sequence | ELISA absorbance, Anti-GD2 antibody (Anti-GD2 antibody; Serum % 12.50%) | ELISA absorbance, Anti-GD2 antibody (Anti-GD2 antibody; Serum % 25%) | ELISA absorbance, Anti-GD2 antibody (Anti-GD2 antibody; Serum % 50%) | ELISA absorbance, Anti-GD2 antibody (Anti-GD2 antibody; Serum % 100%) | 3H Thymidine up-take into CTLL2 cells, mean ± SE (4 wells) [1, 4] | 3H Thymidine up-take into CTLL2 cells, mean ± SE (4 wells) [1, 5] | 3H Thymidine up-take into CTLL2 cells, mean ± SE (4 wells) [1, 6] | 3H Thymidine up-take into CTLL2 cells, mean ± SE (4 wells) [1, 7] | 3H Thymidine up-take into CTLL2 cells, mean ± SE (4 wells) [1, 8] | 3H Thymidine up-take into CTLL2 cells, mean ± SE (4 wells) [1, 9] | 3H Thymidine up-take into CTLL2 cells, mean ± SE (4 wells) [1, 10] | 3H Thymidine up-take into CTLL2 cells, mean ± SE (4 wells) [1, 11] | 3H Thymidine up-take into CTLL2 cells, mean ± SE (4 wells) [1, 12] | 3H Thymidine up-take into CTLL2 cells, mean ± SE (4 wells) [1, 13] | 3H Thymidine up-take into CTLL2 cells, mean ± SE (4 wells) [1, 14] | 3H Thymidine up-take into CTLL2 cells, mean ± SE (4 wells) [1, 15] | reactivity of antiserum with GD3 (ELISA absorbance) [2, 16] | reactivity of antiserum with GD3 (ELISA absorbance) [2, 17] | reactivity of antiserum with GD3 (ELISA absorbance) [2, 18] | reactivity of antiserum with GD3 (ELISA absorbance) [2, 19] | also measured
PHFDSLLYPCELLGC (PHFDSLLYPCQLLGC) [GD3R2, tested as phage clone, MAP form or peptide] | 0.052 | 0.071 | 0.079 | 0.132 | 745 ± 136 | 178 ± 38 | 2857 ± 493 | 1714 ± 239 | 694 ± 141 | 163 ± 41 | 2764 ± 322 | 1653 ± 286 | 748 ± 162 | 174 ± 32 | 2849 ± 396 | 1628 ± 245 | 0.042 and 0.114 and 0.087 and 0.155 and 0.076 and 0.084 and 0.316 and 0.062 | 0.031 and 0.068 and 0.05 and 0.078 and 0.055 and 0.044 and 0.252 and 0.035 | 0.053 and 0.028 (2×) and 0.045 and 0.014 and 0.034 and 0.179 and 0.022 | 0.183 and 0.135 and 0.142 and 0.131 and 0.115 and 0.072 and 0.069 and 0.34 | reactivity of antiserum with GD3 (ELISA absorbance) [2, 20]: 0.078 and 0.049 and 0.071 and 0.034 and 0.091 and 0.039 and 0.047 and 0.241; reactivity of antiserum with GD3 (ELISA absorbance) [2, 21]: 0.039 and 0.035 and 0.025 and 0.016 (2×) and 0.033 and 0.034 and 0.13; reactivity of antiserum with GD3 (ELISA absorbance) [2, 22]: 0.08 and 0.053 and 0.057 and 0.184 and 0.09 and 0.05 and 0.098 and 0.113; reactivity of antiserum with GD3 (ELISA absorbance) [2, 23]: 0.075 and 0.053 and 0.084 and 0.161 and 0.089 and 0.059 and 0.086 and 0.099; reactivity of antiserum with GD3 (ELISA absorbance) [2, 24]: 0.023 (2×) and 0.014 and 0.008 and 0.053 and 0.028 and 0.012 and 0.036; 3H Thymidine up-take into CTLL2 cells, mean ± SE (4 wells) [3, 4]: 792 ± 88; 3H Thymidine up-take into CTLL2 cells, mean ± SE (4 wells) [3, 5]: 185 ± 31; 3H Thymidine up-take into CTLL2 cells, mean ± SE (4 wells) [3, 6]: 2957 ± 326; 3H Thymidine up-take into CTLL2 cells, mean ± SE (4 wells) [3, 7]: 1784 ± 164; 3H Thymidine up-take into CTLL2 cells, mean ± SE (4 wells) [3, 8]: 856 ± 107; 3H Thymidine up-take into CTLL2 cells, mean ± SE (4 wells) [3, 9]: 192 ± 40; 3H Thymidine up-take into CTLL2 cells, mean ± SE (4 wells) [3, 10]: 3057 ± 321; 3H Thymidine up-take into CTLL2 cells, mean ± SE (4 wells) [3, 11]: 1719 ± 184; 3H Thymidine up-take into CTLL2 cells, mean ± SE (4 wells) [3, 12]: 931 ± 124; 3H Thymidine up-take into CTLL2 cells, mean ± SE (4 wells) [3, 13]: 203 ± 36; 3H Thymidine up-take into CTLL2 cells, mean ± SE (4 wells) [3, 14]: 3022 ± 316; 3H Thymidine up-take into CTLL2 cells, mean ± SE (4 wells) [3, 15]: 1717 ± 198
RHAYRSMAEWGFLYS (RHAYRSMAQWGFLYS) [GD3R4, tested as phage clone, MAP form or peptide] | 0.061 | 0.072 | 0.103 | 0.149 | 2420 ± 561 | 1017 ± 182 | 6781 ± 1549 | 4413 ± 854 | 7934 ± 1031 | 2742 ± 751 | 15383 ± 2194 | 10375 ± 1708 | 8354 ± 957 | 3058 ± 568 | 18692 ± 2310 | 12657 ± 1624 | 0.071 and 0.247 and 0.086 (2×) and 0.08 and 0.063 and 0.082 and 0.042 | 0.047 and 0.108 and 0.033 and 0.041 and 0.034 and 0.037 and 0.032 and 0.021 | 0.014 (2×) and 0.052 and 0.009 and 0.008 and 0.006 and 0.012 and 0.007 | 0.08 and 0.164 and 0.195 and 0.153 and 0.124 and 0.147 and 0.05 and 0.122 | activation of T cells ([1]; R4-KLH-immunized mice): T cells have been confirmed to have activated; reactivity of antiserum with GD3 (ELISA absorbance) [2, 20]: 0.07 and 0.114 and 0.128 and 0.093 and 0.106 and 0.079 and 0.057 and 0.058; reactivity of antiserum with GD3 (ELISA absorbance) [2, 21]: 0.022 and 0.026 and 0.062 and 0.033 and 0.031 and 0.041 and 0.013 and 0.019; reactivity of antiserum with GD3 (ELISA absorbance) [2, 22]: 0.088 and 0.176 and 0.253 and 0.19 and 0.168 and 0.113 and 0.147 and 0.116; reactivity of antiserum with GD3 (ELISA absorbance) [2, 23]: 0.042 and 0.093 and 0.111 and 0.104 and 0.098 and 0.045 and 0.061 and 0.053; reactivity of antiserum with GD3 (ELISA absorbance) [2, 24]: 0.008 and 0.029 and 0.026 and 0.022 and 0.039 and 0.013 (2×) and 0.024; reactivity of antiserum with GD3 ([2]; peptide used as immunogen (MAP)): high reactivity with GD3; IL-2 production by T-cell-rich lymphocytes ([3]; lymphocytes from GD3-immunized mouse): production of IL-2 has been confirmed; 3H Thymidine up-take into CTLL2 cells, mean ± SE (4 wells) [3, 4]: 1994 ± 348; 3H Thymidine up-take into CTLL2 cells, mean ± SE (4 wells) [3, 5]: 881 ± 127; 3H Thymidine up-take into CTLL2 cells, mean ± SE (4 wells) [3, 6]: 5867 ± 1213; 3H Thymidine up-take into CTLL2 cells, mean ± SE (4 wells) [3, 7]: 3418 ± 749; 3H Thymidine up-take into CTLL2 cells, mean ± SE (4 wells) [3, 8]: 3248 ± 613; 3H Thymidine up-take into CTLL2 cells, mean ± SE (4 wells) [3, 9]: 1274 ± 156; 3H Thymidine up-take into CTLL2 cells, mean ± SE (4 wells) [3, 10]: 12671 ± 1643; 3H Thymidine up-take into CTLL2 cells, mean ± SE (4 wells) [3, 11]: 8349 ± 1014; 3H Thymidine up-take into CTLL2 cells, mean ± SE (4 wells) [3, 12]: 7526 ± 839; 3H Thymidine up-take into CTLL2 cells, mean ± SE (4 wells) [3, 13]: 2684 ± 387; 3H Thymidine up-take into CTLL2 cells, mean ± SE (4 wells) [3, 14]: 14237 ± 1884; 3H Thymidine up-take into CTLL2 cells, mean ± SE (4 wells) [3, 15]: 11358 ± 1563
